According to patent US6284910A, “Farnesyl pyrophosphate analogs” (University of Kentucky Research Foundation, priority 1999, dated 2001):
“Also recorded” adds a separate entry of the source.

What was measured:
[1] = biological target: T1, squalene synthase (Bos taurus, UniProt Q32KR6); assay: Conversion of [^3 H]AGPP to organic soluble products by squalene synthase; type: biochemical, bovine; settings: in vitro; listed as [^3 H]AGPP
T1 construct: squalene synthase activity present in bovine brain microsome fractions; from tissue; host or cells: bovine brain microsomes (crude)
T1 sequence (Q32KR6 1-417): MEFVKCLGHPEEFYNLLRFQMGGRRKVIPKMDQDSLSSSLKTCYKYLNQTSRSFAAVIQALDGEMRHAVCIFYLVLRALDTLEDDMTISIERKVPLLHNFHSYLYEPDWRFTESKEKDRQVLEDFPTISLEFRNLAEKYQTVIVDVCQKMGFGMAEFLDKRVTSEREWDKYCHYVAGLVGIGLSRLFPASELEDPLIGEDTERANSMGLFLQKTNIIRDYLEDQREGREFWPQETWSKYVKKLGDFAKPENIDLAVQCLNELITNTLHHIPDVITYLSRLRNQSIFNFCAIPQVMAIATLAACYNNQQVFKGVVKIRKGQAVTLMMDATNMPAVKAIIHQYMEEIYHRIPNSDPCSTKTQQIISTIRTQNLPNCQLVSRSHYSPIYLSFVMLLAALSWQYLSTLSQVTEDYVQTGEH
Procedure: Assay for Squalene Synthase Activity--Initial rates of squalene synthase activity present in bovine brain microsome fractions were assayed as previously described (19) with minor modifications. […] […] Assay mixtures were incubated for 30 min at 37° C., and the reactions terminated by the addition of 50 μl of 40% (wt/vol) KOH and then 100 μl of 95% ethanol. The resulting mixtures were incubated at 60° C. for 2 h and then cooled to room temperature. Authentic carrier squalene (20 μg) was added to each reaction tube, which were then extracted three times with petroleum ether. The lipid extracts were pooled, washed with water three times, and evaporated under a stream of N2. The lipid residue was redissolved in 100 μl CHCl3 /CH3 OH (2:1 vol/vol) and an aliquot (30 μl) was taken to determine the amount of labeled lipid formed by scintillation spectrometry. The remaining sample was analyzed on Silica gel G 60 TLC plates by developing with hexane (33). In all analyses the squalene standard was located by anisaldehyde spray reagent (34), and radioactive zones were located with a Bioscan Imaging System 200-IBM.
Some of the previously characterized FTase inhibitors, particularly those competitive for FPP binding, have been described as inhibitors of squalene synthase, an enzyme that utilizes FPP and is an important secondary regulatory protein in the cholesterol biosynthetic pathway (38).

[2] = biological target: T2, recombinant rat brain FTase (Rattus norvegicus, UniProt Q02293+Q04631); assay: Inhibition of FTase-catalyzed transfer of [^3 H]farnesyl from [^3 H]FPP to H-Ras; type: biochemical
T2 construct: 6xHis (N); made in house; host or cells: Sf9 insect cells (baculovirus)
Procedure: FIG. 2. Differential Inhibition of Farnesyltransferase and CAAX Geranylgeranyltransferase by AGPP. The assay mixtures contained (in a final volume of 25 μl) various components as described in "Experimental Procedures". After incubation for 15 min at 37° C., the amount of [^3 H]prenyl group transferred to the appropriate protein substrate [H-Ras (CVLS) for FTase and H-Ras (CVLL) for CAAX GGTase] was measured by precipitation with ethanol-HCl. The assays contained 10 ng recombinant rat FTase, 5 μM H-Ras, and 0.6 μM [^3 H]FPP (33,000 dpm/pmol) or 100 ng recombinant rat CAAX GGTase, 5 μM H-Ras CVLL, and 1 μM [^3 H]GGPP (33,000 dpm/pmol) and the indicated concentration of unlabeled AGPP. The 100% of control values were 1.1 and 5.5 pmol of [^3 H]farnesyl or [^3 H]geranylgeranyl transferred per tube. Each value is the average of duplicate incubations and is representative of two separate experiments.
FIG. 3. Inhibition of Farnesyltransferase by AGPP and I-AGPP. The enzymatic activity was measured in the presence of the various concentrations of either AGPP or I-AGPP as described in […]. The 100% control values were 1.9 and 2 pmol. Each value is the average of duplicate incubations and is representative of three separate experiments.
Assay for Farnesyltransferase Activity--Farnesyltransferase activity was assayed by measuring the amount of [^3 H]farnesyl or [^3 H]anilinogeranyl transferred from [^3 H]FPP or [^3 H]AGPP to recombinant p21^H-ras, as described previously (31). Unless otherwise stated, each reaction mixture contained the following components in a final volume of 25 μl: 50 mM Tris (pH 7.4), 20 mM KCl, 0.2% octyl β-glucopyranoside, 1 mM dithiothreitol, 10-20 ng recombinant FTase, 5 μM p21^Ha-ras, 3 mM MgCl2, 50 μM ZnCl2, and 0.6 μM [^3 H]FPP (33,000 dpm/pmol; American Radiochemical Co.) or 0.1-5 μM [^3 H]AGPP (37,400 dpm/pmol). Following incubation for the indicated times at 37° C., the amount of [^3 H]prenyl transferred was measured by ethanol-HCl precipitation and filtration on glass fiber filters with modification as previously described (19). A blank value was determined in parallel incubation mixtures containing no enzyme. This blank value was subtracted from each reaction before calculating pmol [^3 H]prenyl transferred.
Inhibition of Farnesyltransferase by AGPP--AGPP was tested for its ability to inhibit recombinant rat brain FTase activity in vitro. AGPP inhibited FTase in a concentration dependent manner with an IC50 value of 0.6 μM (FIG. 2).
Kinetic analyses were carried out to investigate the mechanism of FTase inhibition by AGPP. […] The same Km value was observed when the Lineweaver-Burke plot was analyzed under different Ras and AGPP concentrations in the presence of a constant concentration of FPP. […] AGPP inhibition is reversible, since transfer of [^3 H]-FPP by FTase to Ras was restored by isolating the farnesyltransferase by gel filtration chromatography after preincubation in the presence of 50 μM AGPP (data not shown).
The assays contained 10 ng recombinant rat FTase, 5 μM H-Ras, and 0.6 μM [^3 H]FPP (33,000 dpm/pmol) or 100 ng recombinant rat CAAX GGTase, 5 μM H-Ras CVLL, and 1 μM [^3 H]GGPP (33,000 dpm/pmol) and the indicated concentration of unlabeled AGPP. The 100% of control values were 1.1 and 5.5 pmol of [^3 H]farnesyl or [^3 H]geranylgeranyl transferred per tube.

C/C(=C\COP(=O)(O)OP(=O)(O)O)CC/C=C(\C)CNc1ccccc1 [AGPP, (E,E)-8-Aniline-3,7-dimethyl-2,6-octadiene pyrophosphate]
conversion to organic soluble products [1]: showed no activity; also recorded: failed to detect any conversion | IC50 ([2]; 0.6 μM [^3 H]FPP, 5 μM H-Ras, 37° C., 15 min): 600 nM | mechanism of FTase inhibition with respect to Ha-Ras protein ([2]; constant FPP, various Ras): noncompetitive inhibitor with respect to Ha-Ras protein; also recorded: did not apparently affect the Km value for the substrate protein Ha-Ras | mechanism of FTase inhibition with respect to FPP ([2]; double reciprocal plots, various [^3 H]FPP, constant Ras): competitive inhibitor of FTase with respect to FPP; also recorded: changed the Km value for FPP but does not alter the Vmax; also recorded: potent competitive inhibitor | reversibility of FTase inhibition ([2]; gel filtration after preincubation with 50 μM AGPP): reversible | inhibition of FTase, in words ([2]; in vitro, unlabeled compound): competed at essentially the same concentrations
